The values that follow come from ChEMBL document CHEMBL1240330, “Splicing factor SF3b as a target of the antitumor natural product pladienolide” (Nat Chem Biol, 2007).

The target in assay [1] is T1, Splicing factor 3B subunit 3 (Homo sapiens) (UniProt Q15393).
T1 sequence (whole entry): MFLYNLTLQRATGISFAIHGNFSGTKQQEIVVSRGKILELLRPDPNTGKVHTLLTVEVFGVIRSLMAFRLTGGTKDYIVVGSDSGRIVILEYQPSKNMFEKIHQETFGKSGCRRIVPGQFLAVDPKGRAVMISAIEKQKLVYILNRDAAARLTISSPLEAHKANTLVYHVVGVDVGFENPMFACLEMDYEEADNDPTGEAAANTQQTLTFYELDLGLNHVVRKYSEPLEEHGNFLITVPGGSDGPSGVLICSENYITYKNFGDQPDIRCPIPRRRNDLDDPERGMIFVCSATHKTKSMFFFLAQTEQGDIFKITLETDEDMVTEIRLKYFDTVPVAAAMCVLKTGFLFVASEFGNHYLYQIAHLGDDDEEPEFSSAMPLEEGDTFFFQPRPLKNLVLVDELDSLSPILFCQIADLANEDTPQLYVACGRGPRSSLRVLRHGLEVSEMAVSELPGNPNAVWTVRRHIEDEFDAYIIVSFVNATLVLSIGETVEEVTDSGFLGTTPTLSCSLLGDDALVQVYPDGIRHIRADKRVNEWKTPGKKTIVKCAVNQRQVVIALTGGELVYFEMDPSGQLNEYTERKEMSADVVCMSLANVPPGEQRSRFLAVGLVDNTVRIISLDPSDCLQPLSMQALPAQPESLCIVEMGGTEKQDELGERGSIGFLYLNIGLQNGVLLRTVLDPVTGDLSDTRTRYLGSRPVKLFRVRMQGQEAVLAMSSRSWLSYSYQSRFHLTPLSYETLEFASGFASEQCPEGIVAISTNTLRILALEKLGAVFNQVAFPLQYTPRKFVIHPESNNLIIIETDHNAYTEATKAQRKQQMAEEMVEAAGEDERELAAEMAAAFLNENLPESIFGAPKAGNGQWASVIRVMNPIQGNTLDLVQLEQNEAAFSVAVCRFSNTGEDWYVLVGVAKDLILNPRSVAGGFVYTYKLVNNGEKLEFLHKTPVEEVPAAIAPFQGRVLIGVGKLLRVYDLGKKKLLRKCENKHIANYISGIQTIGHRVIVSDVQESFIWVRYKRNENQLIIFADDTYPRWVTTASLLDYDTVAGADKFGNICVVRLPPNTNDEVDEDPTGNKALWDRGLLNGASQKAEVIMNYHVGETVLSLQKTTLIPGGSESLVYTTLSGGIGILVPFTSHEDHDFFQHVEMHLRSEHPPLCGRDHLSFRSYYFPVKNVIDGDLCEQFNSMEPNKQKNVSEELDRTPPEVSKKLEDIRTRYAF
Nature of the assay: Displacement of [3H]probe from SAP130 in human WiDr cell immunoprecipitate sample assessed as radioactive intensity at 10 uM after 1 hr by scintillation counting. A general note: Displacement assays read how much labelled ligand stays bound in the presence of the test substance.

Assay [2] has as its target Splicing factor 3B subunit 1 / PHD finger-like domain-containing protein 5A (Homo sapiens, UniProt O75533+Q7RTV0). The assay can be described thus: (§1) Inhibition of SAP130 in VEGF-stimulated human U251 cells by PLAP reporter gene assay. In kind it is cell-based, U-251. Conditions: u-251. A general note: Reporter assays use an easily measured gene product as a stand-in for the process of interest.

Assay [3] has as its target T2, Splicing factor 3B subunit 3 (Homo sapiens, UniProt Q15393).
T2 sequence (Q15393 whole entry): T1 sequence (whole entry)
The description is as §1. In kind it is cell-based, U-251.

Chain of Splicing factor 3B subunit 1 / PHD finger-like domain-containing protein 5A (O75533 whole entry, the tested form may be a part): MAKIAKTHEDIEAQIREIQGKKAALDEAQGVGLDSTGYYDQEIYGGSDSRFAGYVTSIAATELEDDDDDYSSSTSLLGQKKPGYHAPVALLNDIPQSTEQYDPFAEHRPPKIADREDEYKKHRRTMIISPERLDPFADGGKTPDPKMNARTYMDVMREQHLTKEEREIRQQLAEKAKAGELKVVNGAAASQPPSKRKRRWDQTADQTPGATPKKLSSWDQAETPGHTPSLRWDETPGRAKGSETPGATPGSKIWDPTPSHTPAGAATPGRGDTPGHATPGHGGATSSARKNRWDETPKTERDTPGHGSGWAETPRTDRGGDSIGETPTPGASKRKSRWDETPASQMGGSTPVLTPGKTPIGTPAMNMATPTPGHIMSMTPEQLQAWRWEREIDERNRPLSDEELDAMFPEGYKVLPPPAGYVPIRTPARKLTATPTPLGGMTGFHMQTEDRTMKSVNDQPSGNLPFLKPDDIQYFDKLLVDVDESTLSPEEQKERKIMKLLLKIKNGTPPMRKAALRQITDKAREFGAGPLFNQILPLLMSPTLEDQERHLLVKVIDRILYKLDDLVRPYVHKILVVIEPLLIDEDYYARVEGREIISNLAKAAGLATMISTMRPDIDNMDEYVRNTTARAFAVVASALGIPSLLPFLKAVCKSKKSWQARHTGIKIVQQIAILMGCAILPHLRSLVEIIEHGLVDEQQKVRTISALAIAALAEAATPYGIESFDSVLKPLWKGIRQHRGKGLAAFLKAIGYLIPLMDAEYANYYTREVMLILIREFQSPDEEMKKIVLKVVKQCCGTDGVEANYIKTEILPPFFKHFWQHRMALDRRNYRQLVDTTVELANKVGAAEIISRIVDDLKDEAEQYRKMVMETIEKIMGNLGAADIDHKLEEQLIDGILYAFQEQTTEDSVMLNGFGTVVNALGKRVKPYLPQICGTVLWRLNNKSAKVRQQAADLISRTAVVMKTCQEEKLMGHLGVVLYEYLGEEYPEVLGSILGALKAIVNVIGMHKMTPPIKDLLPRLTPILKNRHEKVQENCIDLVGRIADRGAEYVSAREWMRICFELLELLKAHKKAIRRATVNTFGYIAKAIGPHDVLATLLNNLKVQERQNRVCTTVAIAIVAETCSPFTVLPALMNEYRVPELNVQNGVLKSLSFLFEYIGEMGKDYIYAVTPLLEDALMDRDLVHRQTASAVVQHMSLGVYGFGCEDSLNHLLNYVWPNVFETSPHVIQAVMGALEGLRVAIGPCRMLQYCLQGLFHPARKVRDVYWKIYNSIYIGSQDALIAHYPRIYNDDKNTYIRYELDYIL
Chain of Splicing factor 3B subunit 1 / PHD finger-like domain-containing protein 5A (Q7RTV0 2-110 limits assumed): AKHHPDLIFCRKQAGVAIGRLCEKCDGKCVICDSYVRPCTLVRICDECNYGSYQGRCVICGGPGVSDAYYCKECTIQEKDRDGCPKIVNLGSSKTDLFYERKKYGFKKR

Regarding `CC(=O)N[C@@H](CSC(=O)[C@]1([C@@H](O)C(C)C)NC(=O)[C@H](C)[C@@H]1O)C(=O)O` [LACTACYSTIN], the Activity in assay [1] was below 50%. This compound gave a half-inhibitory concentration (IC50) in assay [2] of 3480 nM. Compound `C=CC[C@@H]1/C=C(\C)C[C@H](C)C[C@H](OC)[C@H]2O[C@@](O)(C(=O)C(=O)N3CCCC[C@H]3C(=O)O[C@H](/C(C)=C/[C@@H]3CC[C@@H](O)[C@H](OC)C3)[C@H](C)[C@@H](O)CC1=O)[C@H](C)C[C@@H]2OC` [TACROLIMUS ANHYDROUS] had a half-inhibitory concentration (IC50) in assay [2] of 13.8 nM.

On to `CC(/C=C/C(=O)NO)=C\[C@@H](C)C(=O)c1ccc(N(C)C)cc1` [TRICHOSTATIN], for which the midpoint of inhibition in assay [3], the IC50, lay at 611 nM.

For orientation: IC50 means the concentration needed to halve the response being measured. Low readings indicate inhibition by little substance, high ones a need for much substance.
